Experimental data taken from ChEMBL document CHEMBL3351864, “Beyond paraquats: dialkyl 3,3'- and 3,4'-bipyridinium amphiphiles as antibacterial agents” (2014).

Experiments:
Type in all cases: functional
Escherichia coli = test: Antibacterial activity against Escherichia coli MC4100 after 72 hrs by broth microdilution method; conditions: MC4100, 72 h
Enterococcus faecalis = test: Antibacterial activity against Enterococcus faecalis OG1RF after 72 hrs by broth microdilution method
Pseudomonas aeruginosa = test: Antibacterial activity against Pseudomonas aeruginosa PAO1 WT after 72 hrs by broth microdilution method; conditions: PAO1, 72 h
Staphylococcus aureus = test: Antibacterial activity against Staphylococcus aureus SH1000 after 72 hrs by broth microdilution method; conditions: SH1000, 72 h

Q: With `CCCCCCCCCCCC[n+]1cccc(-c2ccc[n+](C)c2)c1` as the compound, how does the MIC (Escherichia coli) read?
A: 125 µM

Q: And the MIC (Enterococcus faecalis)?
A: 125 µM

Q: What about the MIC (Pseudomonas aeruginosa) of the same compound?
A: 250 µM

Q: What about the MIC (Staphylococcus aureus) of the same compound?
A: 125 µM

Q: `CCCCCCCCCCCC[n+]1cccc(-c2ccc[n+](CCCCCCCCCCCC)c2)c1` was tested. Which MIC (Escherichia coli) did it give?
A: 1 µM

Q: And the MIC (Enterococcus faecalis)?
A: 1 µM

Q: And the MIC (Pseudomonas aeruginosa)?
A: 2 µM

Q: What about the MIC (Staphylococcus aureus) of the same compound?
A: 1 µM

Q: How did the MIC (Escherichia coli) turn out when `CCCCCCCCCC[n+]1cccc(-c2ccc[n+](CCCCCCCCCC)c2)c1` was run?
A: 2 µM

Q: What about the MIC (Enterococcus faecalis) of the same compound?
A: 2 µM

Q: What about the MIC (Pseudomonas aeruginosa) of the same compound?
A: 8 µM

Q: What about the MIC (Staphylococcus aureus) of the same compound?
A: 2 µM

Q: What does the source list for `CCCCCCCCCCCCCC[n+]1ccc(-c2ccc[n+](CCCCCCCCCCCCCC)c2)cc1`?
A: MIC (Escherichia coli): 2 µM; MIC (Enterococcus faecalis): 1 µM; MIC (Pseudomonas aeruginosa): 16 µM; MIC (Staphylococcus aureus): 2 µM

Q: For `CCCCCCCCCCCC[n+]1cccc(-c2ccc[n+](CCCCCCCCCC)c2)c1`, which MIC (Escherichia coli) is on record?
A: 2 µM

Q: And the MIC (Enterococcus faecalis)?
A: 2 µM

Q: What about the MIC (Pseudomonas aeruginosa) of the same compound?
A: 4 µM

Q: What about the MIC (Staphylococcus aureus) of the same compound?
A: 2 µM

Q: Which MIC (Escherichia coli) does the source give for `CCCCCCCCCCCC[n+]1ccc(-c2ccc[n+](CCCCCCCCCCCC)c2)cc1` here?
A: 0.5 µM

Q: And the MIC (Enterococcus faecalis)?
A: 1 µM

Q: And the MIC (Pseudomonas aeruginosa)?
A: 2 µM

Q: And the MIC (Staphylococcus aureus)?
A: 1 µM

Q: For `CCCCCCCCCCCC[n+]1cccc(-c2cccnc2)c1`, which MIC (Escherichia coli) is on record?
A: 63 µM

Q: And the MIC (Enterococcus faecalis)?
A: 63 µM

Q: And the MIC (Pseudomonas aeruginosa)?
A: 250 µM

Q: What about the MIC (Staphylococcus aureus) of the same compound?
A: 8 µM

Q: With `CCCCCCCCCCCC[N+](C)(C)Cc1ccccc1` [BENZODODECINIUM CHLORIDE] as the compound, how does the MIC (Escherichia coli) read?
A: 32 µM

Q: And the MIC (Enterococcus faecalis)?
A: 8 µM

Q: What about the MIC (Pseudomonas aeruginosa) of the same compound?
A: 63 µM

Q: And the MIC (Staphylococcus aureus)?
A: 8 µM

Q: How did the MIC (Escherichia coli) turn out when `CCCCCCCCCCCCCC[n+]1cccc(-c2ccc[n+](CCCCCCCCCCCCCC)c2)c1` was run?
A: 4 µM

Q: And the MIC (Enterococcus faecalis)?
A: 2 µM

Q: What about the MIC (Pseudomonas aeruginosa) of the same compound?
A: 16 µM

Q: What about the MIC (Staphylococcus aureus) of the same compound?
A: 2 µM

Q: What does the source list for `CCCCCCCCCCCCCC[n+]1cccc(-c2ccc[n+](CCCCCCCCCCCC)c2)c1`?
A: MIC (Escherichia coli): 2 µM; MIC (Enterococcus faecalis): 1 µM; MIC (Pseudomonas aeruginosa): 8 µM; MIC (Staphylococcus aureus): 2 µM

Q: How did the MIC (Escherichia coli) turn out when `CCCCCCCCCCC[n+]1ccc(-c2ccc[n+](CCCCCCCCCCC)c2)cc1` was run?
A: 0.5 µM

Q: And the MIC (Enterococcus faecalis)?
A: 0.5 µM

Q: What about the MIC (Pseudomonas aeruginosa) of the same compound?
A: 1 µM

Q: And the MIC (Staphylococcus aureus)?
A: 0.5 µM

Q: Which results are given for `CCCCCCCC[n+]1cccc(-c2ccc[n+](CCCCCCCC)c2)c1`?
A: MIC (Escherichia coli): 250 µM; MIC (Enterococcus faecalis): 125 µM; MIC (Pseudomonas aeruginosa): > 500 µM; MIC (Staphylococcus aureus): 32 µM

Q: `CCCCCCCCCCC[n+]1cccc(-c2ccc[n+](CCCCCCCCCCC)c2)c1` was tested. Which MIC (Escherichia coli) did it give?
A: 1 µM

Q: What about the MIC (Enterococcus faecalis) of the same compound?
A: 1 µM

Q: What about the MIC (Pseudomonas aeruginosa) of the same compound?
A: 2 µM

Q: What about the MIC (Staphylococcus aureus) of the same compound?
A: 0.5 µM

Q: Which MIC (Escherichia coli) does the source give for `CCCCCCCC[n+]1ccc(-c2ccc[n+](CCCCCCCC)c2)cc1` here?
A: 125 µM

Q: What about the MIC (Enterococcus faecalis) of the same compound?
A: 125 µM

Q: And the MIC (Pseudomonas aeruginosa)?
A: > 500 µM

Q: And the MIC (Staphylococcus aureus)?
A: 125 µM

Q: `CCCCCCCCCCCCCCCC[n+]1ccc(-c2ccc[n+](CCCCCCCCCCCCCCCC)c2)cc1` was tested. Which MIC (Escherichia coli) did it give?
A: 16 µM

Q: What about the MIC (Enterococcus faecalis) of the same compound?
A: 4 µM

Q: What about the MIC (Pseudomonas aeruginosa) of the same compound?
A: 63 µM

Q: And the MIC (Staphylococcus aureus)?
A: 2 µM

Q: With `CCCCCCCCCCCCCCCC[n+]1cccc(-c2ccc[n+](CCCCCCCCCCCCCCCC)c2)c1` as the compound, how does the MIC (Escherichia coli) read?
A: 8 µM

Q: What about the MIC (Enterococcus faecalis) of the same compound?
A: 1 µM

Q: What about the MIC (Pseudomonas aeruginosa) of the same compound?
A: 16 µM

Q: And the MIC (Staphylococcus aureus)?
A: 2 µM

Q: Which results are given for `CCCCCCCCCC[n+]1ccc(-c2ccc[n+](CCCCCCCCCC)c2)cc1`?
A: MIC (Escherichia coli): 2 µM; MIC (Enterococcus faecalis): 2 µM; MIC (Pseudomonas aeruginosa): 16 µM; MIC (Staphylococcus aureus): 2 µM

Q: For `CCCCCCCCCCCC[n+]1cccc(-c2ccc[n+](Cc3ccccc3)c2)c1`, which MIC (Escherichia coli) is on record?
A: 32 µM

Q: And the MIC (Enterococcus faecalis)?
A: 63 µM

Q: What about the MIC (Pseudomonas aeruginosa) of the same compound?
A: 250 µM

Q: And the MIC (Staphylococcus aureus)?
A: 8 µM
